PubChem BioAssay AID248 (DTP/NCI, 2004)
Several values for one entry are separate records, joined by “and”; a condition that tells them apart may be missing. Equal values may be shown once. Toxic doses and inconclusive results are not listed. Numbered stars: 1 amine (or outer) side, 2 acyl side, 3 side chain; on linkers, the order of the positions; unused ones are H or OH. Bridge positions count the residues as written; N and C are the ends. Square brackets hold non-standard residues; d marks the D form. Peptide text beside a SMILES is read from it. I, II: the chains in the order shown. Actinocin(1to9) = Cc1c2oc3c(C)ccc(C(=O)[*:2])c3nc-2c(C(=O)[*:1])c(N)c1=O; NMeV = CN[CH](C(=O)O)C(C)C; Sar = CNCC(=O)O

Tested on: L1210 leukemia ip in BDF1 mice, survival T/C
Assay: NCI In Vivo Anticancer Drug Screen. Data for tumor model L1210 Leukemia (intraperitoneal) in B6D2F1 (BDF1) mice
Conditions: higher = longer survival
Procedure, shortened: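 Value reflects the ratio of survival in compound-treated mice to survival in vehicle-treated controls, with both groups carrying the same transplanted tumor.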

[1] = endpoint: mean survival time, dose: 100.0 mg/kg/injection, schedule: Q04DX002 (ip), vehicle: Klucel (hydroxypropylcellulose) (HPC)
[2] = endpoint: mean survival time, dose: 200.0 mg/kg/injection, schedule: Q04DX002 (ip), vehicle: Klucel (hydroxypropylcellulose) (HPC)
[3] = endpoint: mean survival time, dose: 400.0 mg/kg/injection, schedule: Q04DX002 (ip), vehicle: Klucel (hydroxypropylcellulose) (HPC)
[4] = endpoint: mean survival time, dose: 100.0 mg/kg/injection, schedule: Q04DX003 (ip), vehicle: saline
[5] = endpoint: mean survival time, dose: 25.0 mg/kg/injection, schedule: Q04DX003 (ip), vehicle: saline

CCC[CH2][Pb]([Cl])([CH2]CCC)[CH2]CCC
T/C (endpoint: mean survival time, dose: 6.25 mg/kg/injection, schedule: Q01DX009 (ip), vehicle: saline with Tween-80): 90 % of control

CCOC(=S)Nc1ccc(S(=O)(=O)c2ccc(NC(=S)OCC)cc2)cc1
T/C (endpoint: mean survival time, dose: 100.0 mg/kg/injection, schedule: Q01DX001 (ip), vehicle: saline): 96 % of control
T/C (endpoint: mean survival time, dose: 200.0 mg/kg/injection, schedule: Q01DX001 (ip), vehicle: saline): 92 % of control
T/C (endpoint: mean survival time, dose: 400.0 mg/kg/injection, schedule: Q01DX001 (ip), vehicle: saline): 98 % of control

CCO/C=C1\SC(=S)N(c2cccc(C)c2)C1=O
T/C (endpoint: mean survival time, dose: 100.0 mg/kg/injection, schedule: Q01DX009 (ip), vehicle: Klucel (hydroxypropylcellulose) (HPC)): 112 % of control
T/C (endpoint: mean survival time, dose: 100.0 mg/kg/injection, schedule: Q04DX003 (ip), vehicle: Klucel (hydroxypropylcellulose) (HPC)): 101 % of control
T/C (endpoint: mean survival time, dose: 200.0 mg/kg/injection, schedule: Q01DX009 (ip), vehicle: Klucel (hydroxypropylcellulose) (HPC)): 87 % of control
T/C (endpoint: mean survival time, dose: 200.0 mg/kg/injection, schedule: Q04DX003 (ip), vehicle: Klucel (hydroxypropylcellulose) (HPC)): 113 % of control
T/C (endpoint: mean survival time, dose: 400.0 mg/kg/injection, schedule: Q04DX003 (ip), vehicle: Klucel (hydroxypropylcellulose) (HPC)): 95 % of control

Fc1c(F)c(F)c(P(c2ccccc2)c2ccccc2)c(F)c1F
T/C [1]: 95 % of control
T/C [2]: 95 % of control
T/C [3]: 111 % of control

NC(=O)c1ccccc1N=NN(CCF)CCF
T/C (endpoint: mean survival time, dose: 6.25 mg/kg/injection, schedule: Q01DX009 (ip), vehicle: Klucel (hydroxypropylcellulose) (HPC)): 120 % of control
T/C (endpoint: mean survival time, dose: 6.25 mg/kg/injection, schedule: Q04DX003 (ip), vehicle: Klucel (hydroxypropylcellulose) (HPC)): 112 % of control
T/C (endpoint: mean survival time, dose: 12.0 mg/kg/injection, schedule: Q04DX003 (ip), vehicle: Klucel (hydroxypropylcellulose) (HPC)): 153 % of control
T/C (endpoint: mean survival time, dose: 12.5 mg/kg/injection, schedule: Q01DX001 (ip), vehicle: Klucel (hydroxypropylcellulose) (HPC)): 106 % of control
T/C (endpoint: mean survival time, dose: 12.5 mg/kg/injection, schedule: Q04DX003 (ip), vehicle: Klucel (hydroxypropylcellulose) (HPC)): 156 % of control
T/C (endpoint: mean survival time, dose: 25.0 mg/kg/injection, schedule: Q01DX001 (ip), vehicle: Klucel (hydroxypropylcellulose) (HPC)): 113 % of control
T/C (endpoint: mean survival time, dose: 25.0 mg/kg/injection, schedule: Q04DX003 (ip), vehicle: Klucel (hydroxypropylcellulose) (HPC)): 104 % of control

Cc1cccnc1C
T/C (endpoint: mean survival time, dose: 10.0 mg/kg/injection, schedule: Q01DX009 (ip), vehicle: saline): 105 % of control
T/C (endpoint: mean survival time, dose: 20.0 mg/kg/injection, schedule: Q01DX009 (ip), vehicle: saline): 111 % of control
T/C (endpoint: mean survival time, dose: 30.0 mg/kg/injection, schedule: Q01DX009 (ip), vehicle: saline): 115 % of control
T/C (endpoint: mean survival time, dose: 40.0 mg/kg/injection, schedule: Q04DX003 (ip), vehicle: saline): 112 % of control
T/C (endpoint: mean survival time, dose: 80.0 mg/kg/injection, schedule: Q04DX003 (ip), vehicle: saline): 107 % of control
T/C [4]: 100 % of control

Cc1cc(C)c(NC2=NCCS2)cc1C
T/C (endpoint: mean survival time, dose: 100.0 mg/kg/injection, schedule: Q04DX002 (ip), vehicle: saline with Tween-80): 100 % of control

O=C(Nc1ccccc1Cl)N1CCOCC1
T/C [1]: 106 % of control
T/C [2]: 103 % of control
T/C [3]: 87 % of control

CN(O)C(N)=O
T/C (endpoint: mean survival time, dose: 25.0 mg/kg/injection, schedule: Q03HX024 (ip), vehicle: saline): 160 % of control
T/C (endpoint: mean survival time, dose: 35.0 mg/kg/injection, schedule: Q01DX009 (ip), vehicle: saline): 124 % of control
T/C (endpoint: mean survival time, dose: 50.0 mg/kg/injection, schedule: Q03HX024 (ip), vehicle: saline): 124 % of control
T/C (endpoint: mean survival time, dose: 75.0 mg/kg/injection, schedule: Q04DX003 (ip), vehicle: saline): 108 % of control
T/C (endpoint: mean survival time, dose: 100.0 mg/kg/injection, schedule: Q01DX009 (ip), vehicle: saline): 151 % of control
T/C (endpoint: mean survival time, dose: 115.0 mg/kg/injection, schedule: Q04DX003 (ip), vehicle: saline): 108 % of control
T/C (endpoint: mean survival time, dose: 175.0 mg/kg/injection, schedule: Q04DX003 (ip), vehicle: saline): 119 % of control
T/C (endpoint: mean survival time, dose: 177.0 mg/kg/injection, schedule: Q01DX009 (ip), vehicle: saline): 152 % of control and 170 % of control
T/C (endpoint: mean survival time, dose: 200.0 mg/kg/injection, schedule: Q01DX009 (ip), vehicle: saline): 158 % of control
T/C (endpoint: mean survival time, dose: 265.0 mg/kg/injection, schedule: Q04DX003 (ip), vehicle: saline): 115 % of control
T/C (endpoint: mean survival time, dose: 266.0 mg/kg/injection, schedule: Q01DX009 (ip), vehicle: saline): 194 % of control
T/C (endpoint: mean survival time, dose: 267.0 mg/kg/injection, schedule: Q01DX009 (ip), vehicle: saline): 151 % of control
T/C (endpoint: mean survival time, dose: 400.0 mg/kg/injection, schedule: Q04DX003 (ip), vehicle: saline): 166 % of control
T/C (endpoint: mean survival time, dose: 500.0 mg/kg/injection, schedule: Q01DX009 (ip), vehicle: saline): 100 % of control
T/C (endpoint: mean survival time, dose: 800.0 mg/kg/injection, schedule: Q01DX009 (ip), vehicle: saline): 103 % of control
T/C (endpoint: mean survival time, dose: 900.0 mg/kg/injection, schedule: Q04DX003 (ip), vehicle: saline): 115 % of control

CCC(C)C1NC(=O)C(NC(=O)c2c3nc4c(C(=O)NC5C(=O)NC(C(C)C)C(=O)N6CCCC6C(=O)N(C)CC(=O)N(C)C(C(C)C)C(=O)OC5C)ccc(C)c4oc-3c(C)c(=O)c2N)C(C)OC(=O)C(C(C)C)N(C)C(=O)CN(C)C(=O)C2CCCN2C1=O (stereo unspecified) (I: TIP[Sar][NMeV] / II: TVP[Sar][NMeV]; ester I:1-I:C, II:1-II:C; linker I:N-II:N via Actinocin(1to9); configuration not given here)
T/C (endpoint: mean survival time, dose: 0.2 mg/kg/injection, schedule: Q01DX009 (ip), vehicle: saline): 92 % of control
T/C (endpoint: mean survival time, dose: 3.1 micrograms/kg/injection, schedule: Q01DX001 (ip), vehicle: saline): 97 % of control
T/C (endpoint: mean survival time, dose: 5.5 micrograms/kg/injection, schedule: Q01DX009 (ip), vehicle: acetone): 112 % of control
T/C (endpoint: mean survival time, dose: 6.3 micrograms/kg/injection, schedule: Q01DX001 (ip), vehicle: saline): 98 % of control
T/C (endpoint: mean survival time, dose: 8.2 micrograms/kg/injection, schedule: Q01DX009 (ip), vehicle: acetone): 123 % of control
T/C (endpoint: mean survival time, dose: 12.5 micrograms/kg/injection, schedule: Q01DX001 (ip), vehicle: saline): 100 % of control
T/C (endpoint: mean survival time, dose: 25.0 micrograms/kg/injection, schedule: Q01DX001 (ip), vehicle: saline): 107 % of control
T/C (endpoint: mean survival time, dose: 25.0 micrograms/kg/injection, schedule: Q01DX009 (ip), vehicle: saline): 159 % of control
T/C (endpoint: mean survival time, dose: 50.0 micrograms/kg/injection, schedule: Q01DX001 (ip), vehicle: saline): 114 % of control
T/C (endpoint: mean survival time, dose: 100.0 micrograms/kg/injection, schedule: Q01DX001 (ip), vehicle: saline): 111 % of control
T/C (endpoint: mean survival time, dose: 200.0 micrograms/kg/injection, schedule: Q01DX001 (ip), vehicle: saline): 117 % of control
T/C (endpoint: mean survival time, dose: 400.0 micrograms/kg/injection, schedule: Q01DX001 (ip), vehicle: saline): 116 % of control
T/C (endpoint: median survival time, dose: 12.5 micrograms/kg/injection, schedule: Q01DX009 (ip), vehicle: water): 121 % of control
T/C (endpoint: median survival time, dose: 25.0 micrograms/kg/injection, schedule: Q01DX009 (ip), vehicle: water): 115 % of control
T/C (endpoint: median survival time, dose: 100.0 micrograms/kg/injection, schedule: Q01DX009 (ip), vehicle: water): 157 % of control
T/C (endpoint: median survival time, dose: 200.0 micrograms/kg/injection, schedule: Q01DX001 (ip), vehicle: water): 115 % of control
T/C (endpoint: median survival time, dose: 400.0 micrograms/kg/injection, schedule: Q01DX001 (ip), vehicle: water): 123 % of control
T/C (endpoint: median survival time, dose: 600.0 micrograms/kg/injection, schedule: Q04DX003 (ip), vehicle: water): 150 % of control

CCC(CCl)NC(CC(C)C)CC(C)C (stereo unspecified)
T/C (endpoint: mean survival time, dose: 75.0 mg/kg/injection, schedule: Q01DX001 (ip), vehicle: saline): 93 % of control and 98 % of control
T/C (endpoint: mean survival time, dose: 150.0 mg/kg/injection, schedule: Q01DX001 (ip), vehicle: saline): 96 % of control and 107 % of control

CC(C)=CCCC(C)CCN(C)C (stereo unspecified)
T/C [5]: 96 % of control
T/C (endpoint: mean survival time, dose: 50.0 mg/kg/injection, schedule: Q04DX003 (ip), vehicle: saline): 97 % of control
T/C [4]: 96 % of control

Nc1nc2nc(C(=O)O)cnc2c(=O)[nH]1
T/C (endpoint: mean survival time, dose: 12.5 mg/kg/injection, schedule: Q04DX003 (ip), vehicle: saline): 95 % of control
T/C [5]: 102 % of control

O=C(OC(c1ccccc1)c1ccccc1)C(=O)c1ccccc1
T/C (endpoint: mean survival time, dose: 100.0 mg/kg/injection, schedule: Q04DX003 (ip), vehicle: saline with Tween-80): 92 % of control
T/C (endpoint: mean survival time, dose: 200.0 mg/kg/injection, schedule: Q04DX003 (ip), vehicle: saline with Tween-80): 89 % of control
T/C (endpoint: mean survival time, dose: 400.0 mg/kg/injection, schedule: Q04DX003 (ip), vehicle: saline with Tween-80): 92 % of control

Cc1cccc(C)c1Oc1ccc([N+](=O)[O-])cc1[N+](=O)[O-]
T/C (endpoint: mean survival time, dose: 100.0 mg/kg/injection, schedule: Q01DX001 (ip), vehicle: Klucel (hydroxypropylcellulose) (HPC)): 105 % of control
T/C (endpoint: mean survival time, dose: 200.0 mg/kg/injection, schedule: Q01DX001 (ip), vehicle: Klucel (hydroxypropylcellulose) (HPC)): 112 % of control
T/C (endpoint: mean survival time, dose: 400.0 mg/kg/injection, schedule: Q01DX001 (ip), vehicle: Klucel (hydroxypropylcellulose) (HPC)): 117 % of control
